Assay type in all cases: cell-based
In experiment [1] the target is hTRPV4 (full-length; hTRPV4WT) (Homo sapiens, UniProt Q9HBA0, Q550A). The experiment in a line: calcium flux.
Experiment [2] addresses hTRPV4 (full-length; hTRPV4WT) (Homo sapiens, UniProt Q9HBA0, K535A). The experiment in a line: calcium flux.
Experiment [3] addresses hTRPV4 (full-length; hTRPV4WT) (Homo sapiens, UniProt Q9HBA0, Y556A). Put plainly: calcium flux.
Experiment [4] has as its target hTRPV4 (full-length; hTRPV4WT) (Homo sapiens, UniProt Q9HBA0, S548V). The experiment in a line: calcium flux.
Experiment [5] concerns the target truncated hTRPV4 (cryo-EM construct, residues 148-787 N651D) (Homo sapiens, UniProt Q9HBA0, N651D). Put plainly: two-electrode voltage clamp, Xenopus oocytes.
In experiment [6] the target is hTRPV4 (full-length; hTRPV4WT) (Homo sapiens, UniProt Q9HBA0, F549A). The experiment in a line: calcium flux.
In experiment [7] the target is hTRPV4 (full-length; hTRPV4WT) (Homo sapiens, UniProt Q9HBA0, R594A). The experiment in a line: calcium flux.
Experiment [8] has as its target hTRPV4 (full-length; hTRPV4WT) (Homo sapiens, UniProt Q9HBA0, L584M). The experiment in a line: calcium flux.
Experiment [9] addresses hTRPV4 (full-length; hTRPV4WT) (Homo sapiens, UniProt Q9HBA0, N474A). The experiment in a line: calcium flux.
Experiment [10] addresses hTRPV4 (full-length; hTRPV4WT) (Homo sapiens, UniProt Q9HBA0, N474Q). Put plainly: calcium flux.
The target of experiment [11] is hTRPV4 (full-length; hTRPV4WT) (Homo sapiens, UniProt Q9HBA0). The experiment in a line: calcium flux.
Chain of hTRPV4 (full-length; hTRPV4WT) (Homo sapiens, UniProt Q9HBA0) (Q9HBA0 whole entry): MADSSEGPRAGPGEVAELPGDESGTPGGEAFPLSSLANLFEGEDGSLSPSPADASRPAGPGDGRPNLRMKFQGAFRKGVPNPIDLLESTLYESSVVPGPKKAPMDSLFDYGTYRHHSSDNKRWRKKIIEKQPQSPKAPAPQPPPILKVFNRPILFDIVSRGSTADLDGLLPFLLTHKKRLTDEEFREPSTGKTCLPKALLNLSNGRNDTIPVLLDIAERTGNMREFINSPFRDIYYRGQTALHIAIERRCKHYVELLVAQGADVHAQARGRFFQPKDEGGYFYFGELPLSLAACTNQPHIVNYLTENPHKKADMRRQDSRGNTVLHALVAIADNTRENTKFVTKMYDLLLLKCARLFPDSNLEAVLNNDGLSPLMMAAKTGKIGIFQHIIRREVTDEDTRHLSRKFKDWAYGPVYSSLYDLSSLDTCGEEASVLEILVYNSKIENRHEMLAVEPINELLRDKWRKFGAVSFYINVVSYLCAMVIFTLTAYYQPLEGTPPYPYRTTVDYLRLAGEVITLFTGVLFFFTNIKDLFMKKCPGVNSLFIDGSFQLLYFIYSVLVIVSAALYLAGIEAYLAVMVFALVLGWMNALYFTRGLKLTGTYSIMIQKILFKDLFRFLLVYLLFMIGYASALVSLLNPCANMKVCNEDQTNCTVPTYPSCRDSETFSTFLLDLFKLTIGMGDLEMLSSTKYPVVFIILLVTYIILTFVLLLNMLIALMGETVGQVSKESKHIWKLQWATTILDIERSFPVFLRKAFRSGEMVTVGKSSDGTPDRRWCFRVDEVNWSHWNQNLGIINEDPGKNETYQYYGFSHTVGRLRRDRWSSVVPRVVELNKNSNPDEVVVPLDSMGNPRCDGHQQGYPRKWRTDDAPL

Chain of hTRPV4 (full-length; hTRPV4WT) (Homo sapiens, UniProt Q9HBA0, S548V) (Q9HBA0 whole entry S548V, the tested form may be a part): as the sequence (Q9HBA0 whole entry) above, with S548V counted along it
Chain of hTRPV4 (full-length; hTRPV4WT) (Homo sapiens, UniProt Q9HBA0, F549A) (Q9HBA0 whole entry F549A): as the sequence (Q9HBA0 whole entry) above, with F549A counted along it
Chain of truncated hTRPV4 (cryo-EM construct, residues 148-787 N651D) (Q9HBA0 148-787 N651D): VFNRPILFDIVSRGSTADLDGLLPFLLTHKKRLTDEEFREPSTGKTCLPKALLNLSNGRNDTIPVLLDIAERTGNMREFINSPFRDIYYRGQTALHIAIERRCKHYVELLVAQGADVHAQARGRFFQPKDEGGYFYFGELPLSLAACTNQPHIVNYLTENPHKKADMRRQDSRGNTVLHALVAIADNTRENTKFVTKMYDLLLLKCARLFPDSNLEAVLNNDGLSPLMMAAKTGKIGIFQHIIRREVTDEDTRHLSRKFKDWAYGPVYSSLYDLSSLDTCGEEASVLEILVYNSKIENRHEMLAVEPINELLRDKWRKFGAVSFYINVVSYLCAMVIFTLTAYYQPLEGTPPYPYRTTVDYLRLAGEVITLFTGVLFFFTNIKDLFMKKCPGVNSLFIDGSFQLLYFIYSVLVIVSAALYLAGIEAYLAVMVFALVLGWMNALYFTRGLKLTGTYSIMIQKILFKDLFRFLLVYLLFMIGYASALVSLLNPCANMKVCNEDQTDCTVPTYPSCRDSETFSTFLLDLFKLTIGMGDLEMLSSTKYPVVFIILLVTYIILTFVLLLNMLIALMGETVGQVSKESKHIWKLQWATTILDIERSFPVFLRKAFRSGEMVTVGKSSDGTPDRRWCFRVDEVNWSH
Chain of hTRPV4 (full-length; hTRPV4WT) (Homo sapiens, UniProt Q9HBA0, N474A) (Q9HBA0 whole entry N474A): as the sequence (Q9HBA0 whole entry) above, with N474A counted along it
Chain of hTRPV4 (full-length; hTRPV4WT) (Homo sapiens, UniProt Q9HBA0, N474Q) (Q9HBA0 whole entry N474Q): as the sequence (Q9HBA0 whole entry) above, with N474Q counted along it
Chain of hTRPV4 (full-length; hTRPV4WT) (Homo sapiens, UniProt Q9HBA0, Q550A) (Q9HBA0 whole entry Q550A): as the sequence (Q9HBA0 whole entry) above, with Q550A counted along it
Chain of hTRPV4 (full-length; hTRPV4WT) (Homo sapiens, UniProt Q9HBA0, L584M) (Q9HBA0 whole entry L584M): as the sequence (Q9HBA0 whole entry) above, with L584M counted along it
Chain of hTRPV4 (full-length; hTRPV4WT) (Homo sapiens, UniProt Q9HBA0, R594A) (Q9HBA0 whole entry R594A): as the sequence (Q9HBA0 whole entry) above, with R594A counted along it
Chain of hTRPV4 (full-length; hTRPV4WT) (Homo sapiens, UniProt Q9HBA0, K535A) (Q9HBA0 whole entry K535A): as the sequence (Q9HBA0 whole entry) above, with K535A counted along it
Chain of hTRPV4 (full-length; hTRPV4WT) (Homo sapiens, UniProt Q9HBA0, Y556A) (Q9HBA0 whole entry Y556A): as the sequence (Q9HBA0 whole entry) above, with Y556A counted along it

On to `CC(C)C[C@H](NC(=O)c1cc2ccccc2s1)C(=O)N1CCN(C(=O)[C@H](CO)NS(=O)(=O)c2ccc(Cl)cc2Cl)CC1` [GSK1016790A], for which the EC50 came to 0.027 ± 0.013 µM in experiment [1]; 0.0074 ± 0.0029 µM in [2]; 0.0096 ± 0.0043 µM in experiment [3]; 0.11 ± 0.018 µM in experiment [4]; 8.43 µM in experiment [5]; 0.0098 ± 0.0041 µM in experiment [6]. In addition, the EC50 in [7] is over 25 µM; in [8], 0.004 ± 0.0017 µM; in experiment [9] it was 0.54 ± 0.15 µM; in experiment [10] it was over 25 µM; in experiment [11], 0.00121 ± 3.3e-05 µM.

The values above are taken from article doi:10.1101/2020.10.13.334797v1 (biorxiv, 2020).
